Data reported in patent US8557791B2, “Anti-tumor agent comprising cytidine derivative and carboplatin” (Taiho Pharmaceutical Co., Ltd., priority 2008, dated 2013).

Columns and labels:
[1] = tested on: human head and neck cancer strain OCC-1; test: Survival of nude rats with subcutaneously transplanted human head and neck cancer strain OCC-1; type: in vivo, rat; conditions: carboplatin 40 mg/kg/day vs cisplatin 5 mg/kg/day as employed in the test
Procedure: Male nude rats (F344/N Jcl-rnu) were divided in terms of body weight into groups (14 rats in each group). To each rat, a fragment (about 2×2 mm) of human head and neck cancer strain OCC-1 was subcutaneously transplanted into the back (day 0). Drug administration was started on the day following transplant (day 1). ECyd was administered to a rat through the caudal vein at a dose of 0.3 mg/kg on days 1, 3, 5, 8, 10, and 12. Carboplatin was administered to a rat through the caudal vein at a dose of 30 mg/kg or 40 mg/kg on days 1 and 8. Cisplatin was administered to a rat through the caudal vein at a dose of 5 mg/kg on day 1. […] Rats of a control group were not subjected to drug treatment.
Thereafter, the survival (days) of each rat was checked, and the survival rate of each group was calculated by the following equation 1. FIGS. 1 to 3 are graphs showing survival rates; in each graph the horizontal axis represents days and the vertical axis represents survival rate. Survival rate (%)=(no. of surviving rats/no. of rats tested)×100 (Equation 1)

[2] = tested on: human lung cancer strain LX-1; test: Antitumor effect in nude mice with subcutaneously transplanted human lung cancer strain LX-1; type: in vivo, mouse; conditions: day 15, LX-1 s.c., i.v. days 1 and 8, ECyd 2 mg/kg, carboplatin 70 mg/kg; for RTV Mean ± SD (Relative Tumor Volume): male nude mice (BALB/cA jcl-nu); for IR (Inhibition Rate of tumor proliferation with respect to control): male nude mice
Procedure: A fragment (about 2×2 mm) of human lung cancer strain LX-1 was subcutaneously transplanted in the back of each of male nude mice (BALB/cA jcl-nu). When the average tumor volume (longer diameter (mm)×shorter diameter (mm)×shorter diameter (mm)×½) of these mice reached about 200 mm^3, the mice were divided into groups based on the tumor volume (8 mice in each group) (day 0).
Drug administration was started on the day following transplant (day 1). ECyd and carboplatin were administered to a mouse through the caudal vein at a dose of 2 mg/kg and 70 mg/kg, respectively, on days 1 and 8. Mice of a control group were not subjected to drug treatment.
On day 15, the ratio of tumor volume to that at the grouping (Relative Tumor Volume; RTV) was calculated. In addition, percent inhibition of tumor proliferation of a group with respect to the control group (Inhibition Rate (%); IR (%)) was calculated by equation 2.
From the tumor volume on day 15, enhancement in antitumor effect of the combined administration group with respect to the ECyd-only administration group and the carboplatin-only administration group was analyzed through the Student's t-test (both sides). The antitumor effect of the combined administration group with respect to either single administration group had significance value (p value) of less than 0.05, confirming that administration of ECyd and carboplatin in combination is statistically significant. IR (%)=[1−average tumor volume of treated group/average tumor volume of control group]×100 (Equation 2)

N.N.[Cl][Pt][Cl] [cisplatin]
antitumor effect of the platinum agents compared with each other [1]: almost the same antitumor effect

C#C[C@@]1(O)[C@@H](CO)O[C@@H](n2ccc(N)nc2=O)[C@@H]1O [ECyd, 1-(3-C-Ethynyl-β-D-ribopentofuranosyl)cytosine]
RTV Mean ± SD (Relative Tumor Volume) [2]: 5.43 ± 1.51
IR (Inhibition Rate of tumor proliferation with respect to control) [2]: 43.8%

N.N.O=C([O-])C1(C(=O)[O-])CCC1.[Pt+2] [carboplatin, cis-diammine(1,1-cyclobutanedicarboxylato)platinum(II)]
antitumor effect of the platinum agents compared with each other [1]: almost the same antitumor effect
RTV Mean ± SD (Relative Tumor Volume) [2]: 5.53 ± 1.75
IR (Inhibition Rate of tumor proliferation with respect to control) [2]: 42.8%
